The conditions of data set [1]: human; liver_microsomes.
For data set [2] the following is noted: mdck_mdr1.
The conditions of data set [3]: mouse; liver_microsomes.
Test in data set [4]: not given
The source holds these as a separate data set.

Molecules are shown by their SMILES. Converted amounts (≈) assume the structure as drawn.

In general, microsomal CLint refers to the capacity of the preparation to metabolise the compound, expressed as a volume cleared per time. Low values mean greater metabolic stability, high ones faster metabolism. Broadly, the Papp is the rate of passage across a membrane or cell layer, normalised by area and donor concentration. A high value points to ready permeation. The kinetic solubility is the concentration staying in solution when a stock, usually in DMSO, is diluted into the medium. One may read the logD as lipophilicity at a set pH, counting ionised and neutral species. Higher therefore signals a more lipophilic compound. The compound `CC(C)[C@@H](Nc1ncnc2[nH]c(-c3cnn(C)c3C#N)cc12)c1ccc2c(c1)OCCO2` displayed a solubility (kinetic) of 20 µM (≈ 8.59 µg/mL). In data set [1], this compound gave a microsomal CLint of 47 µL/min/mg. In addition, the Papp in data set [2] is 5.11 ×10⁻⁶ cm/s. For the same compound, in data set [3], the intrinsic metabolic clearance (microsomal CLint) amounted to 129 µL/min/mg. The logD in data set [4] worked out at 3.4.
In the same order, the values of `CC(C)[C@H](Nc1ncnc2[nH]c(-c3cnn(C)c3C#N)cc12)c1ccc2c(c1)OCCO2` are 15 µM (≈ 6.44 µg/mL), 706 µL/min/mg, 5.56 ×10⁻⁶ cm/s, 257 µL/min/mg and 3.3.
On to `CNC(=O)c1cc(Cl)ccc1NS(=O)(=O)c1ccc(Oc2ccccc2Cl)cc1`, for which the solubility (kinetic) stood at 25 µM (≈ 11.3 µg/mL). This compound also came in with a microsomal CLint in data set [1] of 106 µL/min/mg. This compound showed a Papp in data set [2] of 4.91 ×10⁻⁶ cm/s. In addition, the microsomal CLint in data set [3] came out at 94 µL/min/mg. In data set [4], this compound returned a logD of 2.4.
For `COc1cc(Cc2c(-c3ccc(F)cc3)noc2C)nc(N2CCNCC2)n1`, in that order: 325 µM (≈ 125 µg/mL), 15 µL/min/mg, 4.78 ×10⁻⁶ cm/s, 33 µL/min/mg and 2.1.
In the same order, the values of `COc1ccc(C(=O)Nc2cccc(/C=C3/C(=O)NC(=O)c4ccccc43)c2)cc1` are 23 µM (≈ 9.16 µg/mL), 180 µL/min/mg, 2.33 ×10⁻⁶ cm/s, 127 µL/min/mg and 3.6.
For `Cc1cc(CCCOc2c(C)cc(-c3noc(C(F)(F)F)n3)cc2C)on1`, in that order: 18 µM (≈ 6.86 µg/mL), 11.6 µL/min/mg, 1.42 ×10⁻⁶ cm/s, 21.5 µL/min/mg and 4.2.
The compound `N#Cc1cc2c(cc1NC(=O)c1cc(F)cc3[nH]ncc13)CNC2` showed a kinetic solubility of 193 µM (≈ 62 µg/mL). This compound also returned a microsomal CLint in data set [1] of 16.7 µL/min/mg. Besides, the Papp in data set [2] was 3.9 ×10⁻⁶ cm/s. The microsomal CLint in data set [3] was 288 µL/min/mg. The logD in data set [4] was 0.6.
For `NCc1cccc(NC(=O)[C@@H](NC(=O)OCc2ccccc2)c2ccc(OCc3ccccc3)cc2)c1`, the solubility (kinetic) came out at 23 µM (≈ 11.4 µg/mL). Also, the microsomal CLint in data set [1] came out at 11 µL/min/mg. This compound gave a Papp in data set [2] of 1.53 ×10⁻⁶ cm/s. The compound further came in with a microsomal CLint in data set [3] of 1 µL/min/mg. The same compound showed a logD in data set [4] of 3.2.
For `O=C(/C=C/c1ccccc1)C(=O)N1CCN(CCc2ccccc2)CC1`, in that order: 239 µM (≈ 83.3 µg/mL), 167 µL/min/mg, 3 ×10⁻⁶ cm/s, 181 µL/min/mg and 3.3.
In turn, `O=C(Nc1cc(Br)c2c(c1)CNC2)c1cc(F)cc2[nH]ncc12` displayed a solubility (kinetic) of 4 µM (≈ 1.5 µg/mL). Besides, the microsomal CLint in data set [1] worked out at 13.6 µL/min/mg. In data set [2], this compound registered a Papp of 3.4 ×10⁻⁶ cm/s. Also, in data set [3], the microsomal CLint came out at 145 µL/min/mg. The compound further yielded a logD in data set [4] of 1.8.
For `O=C(Nc1cc2c(cc1Br)CNC2)c1cc(F)cc2[nH]ncc12`, in that order: 47 µM (≈ 17.6 µg/mL), 11.4 µL/min/mg, 7.65 ×10⁻⁶ cm/s, 299 µL/min/mg and 1.1.
For `O=C(Nc1ccc2c(c1)CNC2)c1cc(F)cc(-c2cn[nH]c2)c1`, in that order: 184 µM (≈ 59.3 µg/mL), 36.3 µL/min/mg, 1.62 ×10⁻⁶ cm/s, 553 µL/min/mg and 0.7.
For `O=C(Nc1ccc2c(c1)CNC2)c1cccc2[nH]c(C(F)(F)F)cc12`, in that order: 372 µM (≈ 128 µg/mL), 14.1 µL/min/mg, 4.1 ×10⁻⁶ cm/s, 12.7 µL/min/mg and 1.5.
On to `O=C(Nc1ccccc1)Nc1ccc(C(=O)NC2c3cccc(O)c3CC2C(=O)O)cc1` (stereo not given), for which the kinetic solubility was 319 µM (≈ 138 µg/mL). The compound also gave a microsomal CLint in data set [1] of 9 µL/min/mg. Further, in data set [2], the Papp turned out to be 0.7 ×10⁻⁶ cm/s. The microsomal CLint in data set [3] was found to be 2 µL/min/mg. In addition, in data set [4], the logD was found to be 0.12.
The compound `O=C(O)c1cc(Cl)ccc1NS(=O)(=O)c1ccc(Oc2ccccc2Cl)cc1` yielded a kinetic solubility of 369 µM (≈ 162 µg/mL). Moreover, the microsomal CLint in data set [1] is 155 µL/min/mg. The compound also displayed a Papp in data set [2] of 4.01 ×10⁻⁶ cm/s. The compound further showed a microsomal CLint in data set [3] of 13 µL/min/mg. The compound also registered a logD in data set [4] of 3.
For `C[C@H](C(=O)O)[C@H](NC(=O)c1ncnc2[nH]ccc12)c1ccc(Br)cc1` (mixture of isomers), in that order: 386 µM, 5 µL/min/mg, 1.4 ×10⁻⁶ cm/s, 4 µL/min/mg and 0.5.
Take `CC(C)(C)[C@H](Nc1ncnc2[nH]c(-c3cnn(CC(N)=O)c3)cc12)c1ccc2c(c1)OCCO2` (racemic): the kinetic solubility was found to be 195 µM (≈ 90 µg/mL). For the same compound, the microsomal CLint in data set [1] stood at 133 µL/min/mg. The Papp in data set [2] stood at 1.66 ×10⁻⁶ cm/s. The compound further had a microsomal CLint in data set [3] of 47 µL/min/mg. The same compound registered a logD in data set [4] of 3.2.
